According to PMC9937529, “Mechanism of activation and biased signaling in complement receptor C5aR1” (Cell Research, 2023):
Square brackets hold non-standard residues; d marks the D form. Peptide text beside a SMILES is read from it. Nva = CCC[C@H](N)C(=O)O

How the values were obtained:
[1] = tested on: C5aR1; assay: Bias calculation, Gi protein signaling vs β-arrestin 2 recruitment; assay type: cell-based, human; conditions: from curve fit parameters, endogenous agonist C5a as reference; β value > 0 Gi protein-biased, < 0 β-arrestin-biased
Description: The measurement of cAMP inhibition and β-arrestin recruitment in our study was performed as described. Besides, the parameters used below were based on the curve fits of the combined datasets described above.

[2] = tested on: C5aR1; assay: Biased antagonism in competition with C5a (Gi-protein signaling vs β-arrestin 2 recruitment); assay type: cell-based, human; conditions: HEK293
Description: To measure cAMP inhibition effects on the forskolin-induced cAMP accumulation of C5aR1, the GloSensor cAMP assay (Promega) was performed as described in the previous study.[59] Briefly, Flag-tagged wild-type human C5aR1 was co-expressed with GloSensor plasmid in HEK293 cells in 6-well culture plates. After at least 24 h, transfected cells were harvested and suspended in assay buffer Hank’s Balanced Salt Solution (HBSS) containing 10 mM HEPES, pH 7.4, with an additional 3% v/v dilution of the D-Luciferin-Potassium Salt (YEASEN, 40902ES01). […] Finally, the luminescence signals were counted on the Synergy H1 microplate reader (BioTek). […]
The C5a-mediated β-arrestin 2 recruitment to C5aR1 and C5aR2, respectively, was measured using BRET-based assay as previously described.[36],[61],[62] […] The baseline BRET light emissions (460–485 nm and 520–545 nm) were monitored by the Synergy H1 microplate reader (BioTek). After the incubation of different diluted concentrations of agonist with or without antagonist for 10 min, the second BRET light emissions were measured and the ligand-induced BRET ratio was calculated by subtracting the acceptor (mVenus, 520–545 nm) over donor (Nluc, 460–485 nm) emission ratio of the vehicle-treated wells from that of the ligand-treated wells. […]

[3] = molecular target: T1, C5aR1-WT (Homo sapiens, UniProt P21730); assay: BRET assay measuring β-arrestin 2 recruitment; assay type: cell-based; conditions: C5aR1 wild type, HEK293, BRET, mean±SEM, n=3, Table S5, read-out: EC50, β-arrestin2 recruitment
T1 construct: expressed in transfected cells; host or cells: HEK293
T1 sequence (P21730 1-350): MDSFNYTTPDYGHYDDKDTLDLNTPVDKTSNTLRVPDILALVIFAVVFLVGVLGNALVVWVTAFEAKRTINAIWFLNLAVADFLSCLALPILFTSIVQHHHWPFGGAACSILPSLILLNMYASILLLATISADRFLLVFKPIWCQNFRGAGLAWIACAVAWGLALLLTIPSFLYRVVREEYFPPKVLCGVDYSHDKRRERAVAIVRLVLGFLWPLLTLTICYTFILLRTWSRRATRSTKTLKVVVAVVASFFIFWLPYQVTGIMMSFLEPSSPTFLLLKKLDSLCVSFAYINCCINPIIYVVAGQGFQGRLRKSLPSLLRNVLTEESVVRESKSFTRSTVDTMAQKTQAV
Description: Briefly, HEK293 cells were transiently transfected with C5aR1-Nluc and mVenus-β-arrestin 2 or C5aR2-mVenus and Nluc-β-arrestin 2 constructs using PEI transfection reagent (YEASEN, 40816ES02) according to the manufacturer’s instruction. At 24 h post transfection, the cells were gently detached and seeded (100,000/well) onto 96-well white plates in DMEM containing 5% FBS. On the next day, cells were washed once with Phosphate Buffered Saline (PBS) and incubated in HBSS containing 20 mM HEPES, pH 7.4, with coelenterazine h (5 μM, YEASEN, 40906ES02) for 1 h (37 °C, 5% CO2). […] We carried out the nonlinear regression (curve fit) dose-response function in GraphPad Prism 7 to yield the values of Emax and EC50.

[4] = molecular target: T2, C5aR1 wild type (Homo sapiens, UniProt P21730); assay: BRET-based Gαi1–γ2 dissociation assay (G protein signaling); assay type: cell-based; conditions: HEK293, Gi protein dissociation assay (Fig. S10a), ligand 10 min, mean±SEM, n=3
T2 construct: expressed in transfected cells; host or cells: HEK293
T2 sequence (P21730 1-350): T1 sequence (P21730 1-350)
Description: The activation of C5aR1 induced by ligands was measured through BRET-based Gαi1 dissociation from Gβ1γ2 as previously described.[60] HEK293 cells were plated in 6-well plates containing 600,000–800,000 cells per well and cultured 24 h at 37 °C in cell incubator. […] After transfection for 24 h, cells were harvested and dispensed into 96-well white plates and allowed to culture overnight. […] Next, prepared ligands were added into cells for 10 min and the second BRET signal was measured. […] Data were analyzed using a simulation dose-response in GraphPad Prism 7.

`CC(=O)N[C@@H](Cc1ccccc1)C(=O)N[C@@H](CCCCN)C(=O)N1CCC[C@H]1C(=O)N[C@@H](CC(C)C)C(=O)N[C@@H](C)C(=O)N[C@@H](CC(C)C)C(=O)N[C@H](C)C(=O)N[C@@H](CCCNC(=N)N)C(=O)O` [BM213P6-L] (Ac-FKPLAL[dA]R-OH; C-terminus assumed) was tested, and the “Signaling bias (bias factor, in words)” value [1] was “increased β-arrestin-biased features compared to BM213”.
With PMX53 the “Biased antagonism (in words)” value [2] was “the opposite”.
`CC(=O)N[C@@H](Cc1ccccc1)C(=O)N[C@@H](CCCCN)C(=O)N1CCC[C@H]1C(=O)N[C@@H](CC(C)C)C(=O)N[C@@H](C)C(=O)N[C@H](C(=O)N[C@H](C)C(=O)N[C@@H](CCCNC(=N)N)C(=O)O)C(C)C` [BM213P6-V] (Ac-FKPLAV[dA]R-OH) was tested, and the EC50 [3] was 2.59 ± 0.11 µM and the EC50 [4] was 35.5 ± 4.23 nM.
Compound `CC(=O)N[C@@H](Cc1ccccc1)C(=O)N[C@@H](CCCCN)C(=O)N1CCC[C@H]1C(=O)N[C@@H](CC(C)C)C(=O)N[C@@H](C)C(=O)N[C@@H](Cc1ccccc1)C(=O)N[C@H](C)C(=O)N[C@@H](CCCNC(=N)N)C(=O)O` [BM213P6-F] (Ac-FKPLAF[dA]R-OH) has an EC50 [3] of 155 ± 59 µM and an EC50 [4] of 455 ± 34.9 nM.
With `Cc1ccc(NC(=O)[C@H]2CCCN(C(=O)c3c(C)cccc3F)[C@H]2c2ccc(NC3CCCC3)cc2)cc1C(F)(F)F` [avacopan] the “Biased antagonism (in words)” value [2] was “biased inhibition toward β-arrestin recruitment over G protein coupling”.
In the case of `CCC[C@H](NC(=O)[C@H](C)NC(=O)[C@H](CC(C)C)NC(=O)[C@@H]1CCCN1C(=O)[C@H](CCCCN)NC(=O)[C@H](Cc1ccccc1)NC(C)=O)C(=O)N[C@H](C)C(=O)N[C@@H](CCCNC(=N)N)C(=O)O` [BM213P6-Nva] (Ac-FKPLA[Nva][dA]R-OH), the “Signaling bias (bias factor, in words)” value [1] is reported as “increased β-arrestin-biased features compared to BM213”.
